Measurements as given in PMC6099630, “Synthesis, Antiviral and Cytotoxic Activity of Novel Terpenyl Hybrid Molecules Prepared by Click Chemistry” (Molecules : A Journal of Synthetic Chemistry and Natural …, 2018).

Key:
[1] = system: HSV-1 B2006 strain (thymidine kinase-deficient, TK−); assay: microbe, parasite or virus in culture; type: cell-based, herpes simplex virus type 1 (HSV-1); settings: Human alphaherpesvirus 1, 48 h, read-out: EC50 B2006
Protocol: (§1) The synthetic compounds and acyclovir (ACV, Sigma) were dissolved in dimethylsulfoxide (DMSO) and diluted with Eagle’s minimal essential medium supplemented with 1.5% inactivated fetal bovine serum (FBS) and 50 μg/mL gentamicin (MEM 1.5%).
(§2) Vero and Hep-2 cells were grown in MEM supplemented with 10% inactivated FBS and 50 µg/mL gentamicin and maintained in MEM 1.5%. Raw 264.7 cells were grown in Dulbecco’s Modified Eagle’s Medium (DMEM) supplemented with 10% FBS and 50 µg/mL gentamicin and maintained in DMEM 1.5%. C6 cells were grown in DMEM-F12 supplemented with 2.5% FBS50 µg/mL gentamicin and 15% horse serum (HS) and maintained in DMEM-F12 supplemented with 1.5% FBS. HSV-1 KOS, thymidine kinase-deficient (TK−) B2006 and Field strains of HSV-1 were used and propagated at low multiplicity of infection (m.o.i.) on Vero cells.
(§3) Cells grown in 96-well plates were infected or not with HSV-1 (KOS, Field and B2006 strains) at a m.o.i. of 0.1 PFU/cell. After 1-h adsorption at 37 °C, the inoculum was removed and medium containing or not the compounds was added, in triplicate. […] Then, cells were fixed with 10% formaldehyde for 15 min at room temperature, washed once with distilled water and stained with 0.05% crystal violet in 10% ethanol over 30 min. […] The absorbance of each well was measured on an Eurogenetics MPR-A 4i microplate reader using a test wave-length of 590 nm.

[2] = system: HSV-1 Field strain; assay: Cytopathic effect assay, HSV-1 Field; type: cell-based, herpes simplex virus type 1 (HSV-1); settings: Human alphaherpesvirus 1; inhibition of 50% viral cytopathic effect; m.o.i. 0.1 PFU/cell, 48 h p.i.; nonlinear regression
Protocol: as §1, §2, §3

[3] = in vitro; type: cell-based; settings: African green monkey
Protocol: as §1, §2
Cell viability was determined using the tetrazolium salt MTT (3-(4,5-dimethylthiazol-2-yl)-2,5-diphenyltetrazolium bromide, Sigma) according to the manufacturer’s instructions. […] The absorbance was measured on a MPR-A 4i microplate reader (Eurogenetics, Tipperary, Ireland) using a test wavelength of 570 nm and a reference wavelength of 630 nm. Results were expressed as a percentage of absorbance of treated cell cultures with respect to untreated ones. […]

[4] = system: HSV-1 KOS strain; assay: Cytopathic effect assay, HSV-1 KOS; type: cell-based, herpes simplex virus type 1 (HSV-1); settings: Human alphaherpesvirus 1; inhibition of 50% viral cytopathic effect; m.o.i. 0.1 PFU/cell, 48 h p.i.; nonlinear regression
Protocol: as §1, §2, §3

Nc1nc2c(ncn2COCCO)c(=O)[nH]1 [ACV, Acyclovir]
EC50 [1]: 50 ± 2 µM | EC50 [2]: 73 ± 1 µM | CC50 at 48 h [3]: > 1000 µM | EC50 [4]: 8.2 ± 1 µM
